Assay results taken from the supplement of paper PMC4862054.
Where “and” joins values, the source holds several entries; their conditions need not be identical. Equal entries are not always repeated.

Columns and labels:
Details in all cases: incubation time: 72 h
CAL-120 [1] = assay: normalised response (% of control), CellTiter-Glo; higher = more viable cells (100 = DMSO, 0 = benzethonium chloride kill control)
Protocol: (§1)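 DSRT, 72 h incubation, CellTox Green / CellTiter-Glo readout. Signal is normalised to DMSO and benzethonium chloride controls. Value is the normalised response at the highest dose.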

CAL-148 [2] = assay: as above
Protocol: as §1

MDA-MB-231 [3] = assay: as above
Protocol: as §1

MDA-MB-453 [4] = assay: as above
Protocol: as §1

BT-549 [5] = assay: as above
Protocol: as §1

MDA-MB-468 [6] = assay: as above
Protocol: as §1

HDQ-P1 [7] = assay: as above
Protocol: as §1

HCC1143 [8] = assay: as above
Protocol: as §1

BT-474 [9] = assay: as above
Protocol: as §1

Hs578T [10] = assay: as above
Protocol: as §1

CAL-51 [11] = assay: as above
Protocol: as §1

MFM-223 [12] = assay: as above
Protocol: as §1

SK-BR-3 = assay: as above
Protocol: as §1

HCC1937 [13] = assay: as above
Protocol: as §1

MDA-MB-436 [14] = assay: as above
Protocol: as §1

DU-4475 [15] = assay: as above
Protocol: as §1

CAL-85-1 [16] = assay: as above
Protocol: as §1

MCF-10A [17] = assay: as above
Protocol: as §1

HCC1599 [18] = assay: as above
Protocol: as §1

CAL-120 [19] = assay: normalised response (% of control), CellTox Green; higher = less cell death (100 = DMSO, 0 = benzethonium chloride kill control)
Summary of the method: (§2)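 Plates were normalised with 0.1 % DMSO as 100 and a positive kill control as 0. Breast cancer cell lines in 20 µl suspension had been seeded into 384-well plates with compound at 5 concentrations in 10-fold steps over a compound-specific 10,000-fold range, incubated 72 h, and read for CellTox Green fluorescence (485/520 nm) followed by CellTiter-Glo luminescence. Each value is the normalised signal at a single concentration.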

CAL-148 [20] = assay: as above
Summary of the method: as §2

MDA-MB-231 [21] = assay: as above
Summary of the method: as §2

MDA-MB-453 [22] = assay: as above
Summary of the method: as §2

BT-549 [23] = assay: as above
Summary of the method: as §2

MDA-MB-468 [24] = assay: as above
Summary of the method: as §2

HDQ-P1 [25] = assay: as above
Summary of the method: as §2

HCC1143 [26] = assay: as above
Summary of the method: as §2

BT-474 [27] = assay: as above
Summary of the method: as §2

Hs578T [28] = assay: as above
Summary of the method: as §2

CAL-51 [29] = assay: as above
Summary of the method: as §2

MFM-223 [30] = assay: as above
Summary of the method: as §2

HCC1937 [31] = assay: as above
Summary of the method: as §2

MDA-MB-436 [32] = assay: as above
Summary of the method: as §2

DU-4475 [33] = assay: as above
Summary of the method: as §2

CAL-85-1 [34] = assay: as above
Summary of the method: as §2

MCF-10A [35] = assay: as above
Summary of the method: as §2

HCC1599 [36] = assay: as above
Summary of the method: as §2

CAL-148 [37] = assay: normalised viability (% of control), CellTiter-Blue; higher = more viable cells (about 100 = DMSO control)
Protocol: (§3)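 DSRT, CellTiter-Blue viability, 72 h incubation. Signal is normalised to DMSO and benzethonium chloride controls. Value is the normalised response at dose 6.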

MDA-MB-453 [38] = assay: as above
Protocol: as §3

CAL-51 [39] = assay: as above
Protocol: as §3

DU-4475 [40] = assay: as above
Protocol: as §3

CAL-85-1 [41] = assay: as above
Protocol: as §3

| SMILES | normalised response (CAL-120 [1]) [%] | normalised response (CAL-148 [2]) [%] | normalised response (MDA-MB-231 [3]) [%] | normalised response (MDA-MB-453 [4]) [%] | normalised response (BT-549 [5]) [%] | normalised response (MDA-MB-468 [6]) [%] | normalised response (HDQ-P1 [7]) [%] | normalised response (HCC1143 [8]) [%] | normalised response (BT-474 [9]) [%] | normalised response (Hs578T [10]) [%] | normalised response (CAL-51 [11]) [%] | normalised response (MFM-223 [12]) [%] | normalised response (SK-BR-3) [%] | normalised response (HCC1937 [13]) [%] | normalised response (MDA-MB-436 [14]) [%] | normalised response (DU-4475 [15]) [%] | normalised response (CAL-85-1 [16]) [%] | normalised response (MCF-10A [17]) [%] | normalised response (HCC1599 [18]) [%] | normalised response (CAL-120 [19]) [%] | other results |
| --- | --- | --- | --- | --- | --- | --- | --- | --- | --- | --- | --- | --- | --- | --- | --- | --- | --- | --- | --- | --- | --- |
| O=[N+]([O-])c1ccc2c(c1)S(=O)(=O)C=C2 [Stattic] (50000 nM) | -0.12 | 0.45 | -0.2 | 0.25 | -0.12 | 0.18 | 0.11 | 0.27 | 0.34 | 0.3 | 0.17 | 0.11 | 0.32 | 0.16 | -0.02 | 0.04 | -0.24 | 0.13 | 0.17 | 27.8 | normalised response (CAL-148 [20]): 25.6%; normalised response (MDA-MB-231 [21]): -17.4%; normalised response (MDA-MB-453 [22]): 17.2%; normalised response (BT-549 [23]): -34.2%; normalised response (MDA-MB-468 [24]): -81.1%; normalised response (HDQ-P1 [25]): 27.2%; normalised response (HCC1143 [26]): -42.8%; normalised response (BT-474 [27]): 8.89%; normalised response (Hs578T [28]): -12.9%; normalised response (CAL-51 [29]): 34.1%; normalised response (MFM-223 [30]): 30.1%; normalised response (HCC1937 [31]): -18.2%; normalised response (MDA-MB-436 [32]): -15.2%; normalised response (DU-4475 [33]): 82.3%; normalised response (CAL-85-1 [34]): -51.7%; normalised response (MCF-10A [35]): -24.7%; normalised response (HCC1599 [36]): 65% |
| CC(C)n1cnc2c(NCCc3ccc(O)cc3)nc(-c3csc4ccccc34)nc21 [StemRegenin 1] (10000 nM) | 89.2 | 102 | 85.3 | 76.1 | 76.4 | 47.5 | 76.9 | 93.6 | 71.4 | 76.3 | 107 | 59.2 | 68.3 | 58.9 | 74 | 89.3 | 78.2 | 97.7 | 61.6 | 103 | normalised response (CAL-148 [20]): 104%; normalised response (MDA-MB-231 [21]): 100%; normalised response (MDA-MB-453 [22]): 87.5%; normalised response (BT-549 [23]): 94.6%; normalised response (MDA-MB-468 [24]): 130%; normalised response (HDQ-P1 [25]): 84.8%; normalised response (HCC1143 [26]): 70.8%; normalised response (BT-474 [27]): 85.5%; normalised response (Hs578T [28]): -20%; normalised response (CAL-51 [29]): 122%; normalised response (MFM-223 [30]): 28.5%; normalised response (HCC1937 [31]): 91.1%; normalised response (MDA-MB-436 [32]): 103%; normalised response (DU-4475 [33]): 98.1%; normalised response (CAL-85-1 [34]): 78.5%; normalised response (MCF-10A [35]): 118%; normalised response (HCC1599 [36]): 102% |
| O=C(CCCCCCC(=O)Nc1ccccc1)NO [Vorinostat] (300 nM) |  |  |  |  |  |  |  |  |  |  |  |  |  |  |  |  |  |  |  |  | normalised viability (CAL-148 [37]): 85.6% and 94.9%; normalised viability (MDA-MB-453 [38]): 82.8% and 81.7%; normalised viability (CAL-51 [39]): 116% and 104%; normalised viability (DU-4475 [40]): 97.4% and 88.9%; normalised viability (CAL-85-1 [41]): 95.3% and 104% |
